Key:
[1] = system: A375 cells; assay: Assay 1: A375 cells treated with S1152, S1008 and compound, immunofluorescence (sc-365823) signal; assay type: cell-based; conditions: 1 μM S1152 + 0.5 μM S1008, one day
Summary of the method: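 A375 cells treated one day with 1 μM S1152, 0.5 μM S1008 and compound dose ranges in DMEM/10% FCS, then fixed, permeabilised and immunostained. Green signal normalised to nuclear counterstain (ethidium-type or DAPI), log ratio fitted by four-parameter regression for EC50.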

[2] = system: OPM-2; assay: Assay 2: multiple myeloma cellular efficacy, PrestoBlue cell proliferation/survival; assay type: cell-based; conditions: Homo sapiens, 96 h, OPM-2 cells, 4 days
Procedure: Multiple Myeloma Cellular Efficacy:
10000 OPM-2 (ACC50; DSMZ) were plated into wells of a 384 well plate (Greiner 781090). Cells were treated for 4 days with a dose range of compound or vehicle. At the end of the experiment cells were stained directly with PrestoBlue (ThermoFisher Scietific; A13262) for 2 hours at 37° C. in a humidified incubator according to manufactor's instruction. To assess the relative cell number the PrestoBlue signal was measured using either a TecanM1000Pro reader or a Tecan Sparks reader following the manufactor's instructions. Background (no cells) values were subtracted and set in relation to the vehicle control. To assess the EC50 of each compound the relative fluorescence value was plotted against the compound concentration after log transformation. Data were fitted in a nonlinear manner with a variable slope (four parameters) using graphpad prism software. Cellular efficacy of compounds was evaluated in the multiple myeloma cell line OPM-2 using the cell proliferation/survival assay PrestoBlue. EC50 values are classified as indicated below.

Compound	EC50 [1] [nM]	EC50 [2] [nM]
COCCOc1cncc(-c2cc(Nc3cc(F)cc(-c4cnn(C)c4)c3)nc([C@@H]3CC[C@H](C)N(C(C)=O)C3)n2)c1 [Compound 00091, 1-((2S,5R)-5-(4-((3-fluoro-5-(1-methyl-1H-pyrazol-4-yl)phenyl)amino)-6-(5-(2-methoxyethoxy)pyridin-3-yl)pyrimidin-2-yl)-2-methylpiperidin-1-yl)ethan-1-one]	< 200	< 200
CC(=O)N1C[C@H](c2nc(Nc3cc(F)cc(-c4cnn(C)c4)c3)cc(-c3cncc(OCCO)c3)n2)CC[C@@H]1C [Compound 00093, 1-((2S,5R)-5-(4-((3-fluoro-5-(1-methyl-1H-pyrazol-4-yl)phenyl)amino)-6-(5-(2-hydroxyethoxy)pyridin-3-yl)pyrimidin-2-yl)-2-methylpiperidin-1-yl)ethan-1-one]	< 200	< 200
COCCn1ccc2c(-c3cc(Nc4cccc(-c5cn(C)nn5)c4)nc([C@@H]4CC[C@H](C)N(C(C)=O)C4)n3)cncc21 [Compound 00094, 1-((2S,5R)-5-(4-(1-(2-methoxyethyl)-1H-pyrrolo[2,3-c]pyridin4-yl)-6-((3-(1-methyl-1H-1,2,3-triazol-4-yl)phenyl)amino)pyrimidin-2-yl)-2-methylpiperidin-1-yl)ethan1-one]	< 200	< 200
CC(=O)N1C[C@H](c2nc(Nc3ccnc(C)c3)cc(-c3cccnc3)n2)CC[C@@H]1C [Compound 00095, 1-((2S,5R)-2-methyl-5-(4-((2-methylpyridin-4-yl)amino)-6-(pyridin-3-yl)pyrimidin-2-yl)piperidin-1-yl)ethan-1-one]	< 200	< 200
CC(=O)N1C[C@H](c2nc(Nc3ccnc(C)c3)cc(-c3cc(C)cs3)n2)CC[C@@H]1C [Compound 00105, 1-((2S,5R)-2-methyl-5-(4-((2-methylpyridin-4-yl)amino)-6-(4-methylthiophen-2-yl)pyrimidin-2-yl)piperidin-1-yl)ethan-1-one]	< 200	200 to 1000
CC(=O)N1C[C@H](c2nc(Nc3cncc(C(F)F)c3)cc(-c3cccnc3)n2)CC[C@@H]1C [Compound 00107, 1-((2S,5R)-5-(4-((5-(difluoromethyl)pyridin-3-yl)amino)-6-(pyridin-3-yl)pyrimidin-2-yl)-2-methylpiperidin-1-yl)ethan-1-one]	200 to 1000	200 to 1000
CC(=O)N1C[C@H](c2nc(Nc3ccnc(C)c3)cc(-c3cncc(OC(F)F)c3)n2)CC[C@@H]1C [Compound 00111, 1-((2S,5R)-5-(4-(5-(difluoromethoxy)pyridin3-yl)-6-((2-methylpyridin4-yl)amino)pyrimidin-2-yl)-2-methylpiperidin-1-yl)ethan-1-one]	< 200	200 to 1000
CC(=O)N1C[C@H](c2nc(Nc3ccnc(C)c3)cc(-c3cncc4c3cnn4C)n2)CC[C@@H]1C [Compound 00112, 1-((2S,5R)-2-methyl-5-(4-(1-methyl-1/7-pyrazolo[3,4-c]pyridin-4-yl)-6-((2-methylpyridin-4-yl)amino)pyrimidin-2-yl)piperidin-1-yl)ethan-1-one]	< 200	< 200
CC(=O)N1C[C@H](c2nc(Nc3ccnc(C)c3)cc(-c3cncc(N4CC(C(=O)N(C)C)C4)c3)n2)CC[C@@H]1C [Compound 00113, 1-(5-(2-((3R,6S)-1-acetyl-6-methylpiperidin-3-yl)-6-((2-methylpyridin-4-yl)amino)pyrimidin-4-yl)pyridin-3-yl)-N,N-dimethylazetidine-3-carboxamide]	1000 to 10000	1000 to 10000
CC(=O)N1C[C@H](c2nc(Nc3ccnc(C)c3)cc(-c3cncc(N4C[C@@H]5C[C@H]4CO5)c3)n2)CC[C@@H]1C [Compound 00115, 1-((2S,5R)-5-(4-(5-((1S,4S)-2-oxa-5-azabicyclo[2.2.1]heptan-5-yl)pyridin-3-yl)-6-((2-methylpyridin-4-yl)amino)pyrimidin-2-yl)-2-methylpiperidin-1-yl)ethan-1-one]	< 200	200 to 1000

— patent US12478624B2, “Heterocyclic derivatives, pharmaceutical compositions and their use in the treatment or amelioration of cancer” (Tolremo Therapeutics AG, priority 2019, dated 2025)
